# Source: patent US20240101599A1, “PEPTIDE, CELL GROWTH PROMOTER, PROTEIN PRODUCTION PROMOTER, CULTURE MEDIUM, CELL GROWTH METHOD USING PEPTIDE, AND PROTEIN PRODUCTION METHOD USING PEPTIDE” (Maruhachi Muramatsu, Inc., priority 2020, published 2024)
# Assays:
# CHO-K1 [1] = assay: Relationship between concentration of each peptide solution and viable cell count (absorbance); format: cell-based; conditions: for Absorbance (450 nm): 5 days, MEMα without FBS, n = 3 average, 0 mM = 0.0000; for cell growth promotion, order of the peptides: in words, promoted in the order GEK, DGP, AGK, GPP, GGP, AEK, AGG, ASN, EGK (strongest first)
# Procedure: Peptides having the sequences of Gly-Glu-Lys (GEK), Asp-Gly-Pro (DGP), Ala-Gly-Lys (AGK), Gly-Pro-Pro (GPP), Gly-Gly-Pro (GGP), Ala-Glu-Lys (AEK), Ala-Gly-Gly (AGG), Ala-Ser-Asn (ASN), and Glu-Gly-Lys (EGK), and Gly-Gly-Gly (GGG) are synthesized to prepare each of peptide solutions at 10-fold concentrations shown in Tables 1 to 10.
# A cell suspension prepared such that CHO-K1 (RI KEN BioResource Research Center, cell number: RCB2330) was at 3×10^4 cells/mL was seeded in a 96-well plate at 100 μL/well and cultured in an incubator at 37° C. and 5% CO2 for 24 hours. As a culture medium, an MEMα culture medium (Gibco) containing 10% FBS was used.
# After removing the culture medium from each well and washing with the MEMα culture medium (100 μL), 90 μL of a new MEMa culture medium was dispensed into each well, and each peptide solution (10 μL) was added (total 100 μL/well) such that final concentrations were within a range of 0 mM to 5 mM as shown in Tables 1 to 10 to perform culture for 5 days. A similar culture test was performed using a system containing neither peptide nor FBS as a comparative sample. After culturing for 5 days, 10 μL/well of a viable cell count measurement reagent SF (Nacalai Tesque Inc.) was added, and a color reaction was carried out in an incubator at 37° C. and 5% CO2 for 2 hours to measure an absorbance at 450 nm with a plate reader. A reference wavelength was 630 nm. It was confirmed that the absorbance at 450 nm correlated with the cell number.
# The above preparation, culture, and measurement were performed with n=3, and Tables 1 to 10 and FIGS. 1 to 10 show the absorbance at the concentration of each peptide solution.
# CHO-K1 [2] = assay: Cell growth test of each peptide on coating agent for 5 days; format: cell-based; parameters: Viability, 1 / Viability, 2 / Viability, 3 / Viability, Mean: unit not given here; conditions: 2.0 mM Ala-Gly-Lys, 2.1 mM Gly-Glu-Lys, 2.5 mM Gly-Gly-Gly, poly-L-lysine coating
# Procedure: Peptides having the sequences of Asp-Gly-Pro (DGP), Ala-Gly-Lys (AGK), Gly-Glu-Lys (GEK), and Gly-Gly-Gly (GGG) were synthesized to prepare each peptide solution such that the concentration was a concentration at which the cell number increased the most within a range of 0 mM to 5 mM. In other words, Asp-Gly-Pro (DGP) was adjusted to 22 mM, Ala-Gly-Lys (AGK) was adjusted to 20 mM, Gly-Glu-Lys (GEK) was adjusted to 21 mM, and Gly-Gly-Gly (GGG) was adjusted to 25 mM, and an amount of 1/10 of the total culture medium volume was added to each well immediately before the cell culture test such that final concentrations were 2.2 mM, 2.0 mM, 2.1 mM, and 2.5 mM, respectively. Poly-L-lysine (Peptide Institute, Inc., Poly-L-Lysine Hydrochloride, code: 3075) was prepared to 0.1 mg/mL, and 200 μL was dispensed into each well of a 24-well plate, which was left to stand in an incubator at 37° C. for 2 hours. After removing the residual liquid with an aspirator, rinsing was performed with distilled water, irradiation was performed with a UV lamp in a clean bench without a lid, and drying was performed overnight to sterilize. A cell suspension prepared such that CHO-K1 (RIKEN BioResource Research Center, cell number: RCB2330) was at 4×10^4 cells/mL was seeded in each well of a 24-well plate at 500 μL/well and cultured in an incubator at 37° C. and 5% CO2 for 24 hours. As a culture medium, an MEMα culture medium (Gibco) containing 10% FBS was used.
# After removing the culture medium from each well and washing with the MEMα culture medium (500 μL), 450 μL of a new MEMα culture medium was dispensed into each well, and each peptide solution (50 μL) was added (total 500 μL/well) to perform culture for 5 days. The cells were recovered to count the cell number. A similar culture test was performed using a system containing neither peptide nor FBS as a comparative sample.
# The culture medium in each well was recovered in a 1.5 mL tube to be rinsed with 200 μL of MEMα, and the rinsed liquid was also recovered in the same 1.5 mL tube. Thereafter, 100 μL of trypsin was added and incubated for 3 minutes. After rinsing with 300 μL of MEMα containing 10% FBS, the rinsed liquid was also recovered in the same 1.5 mL tube. After rinsing again with 200 μL of MEMα containing 10% FBS, the rinsed liquid was also recovered in the same 1.5 mL tube.
# A centrifugation operation was performed on the cells recovered in the 1.5 mL tube. The centrifugation conditions were 1,000 rpm, 10 minutes, and 4° C.
# The supernatant was removed, and 300 μL of Cold PBS (phosphate buffered saline) was added to perform a centrifugation operation under the same conditions. The present operation was repeated twice.
# Suspension was carried out with 100 μL of Binding Buffer, and 2 μL of propidium iodide (PI) was added and stirred in the tube to cause a reaction for 15 minutes at room temperature and with light shielding. Thereafter, the viable cell count and the cell viability were measured with a flow cytometer.
# The above preparation, culture, and measurement were performed with n=3. Table 15 and FIG. 15 show the viable cell count in each peptide solution, and Table 16 and FIG. 16 show the cell viability in each peptide solution.
# [3] = replicate 1, 2.2 mM Asp-Gly-Pro
# [4] = replicate 2, 2.2 mM Asp-Gly-Pro
# [5] = replicate 3, 2.2 mM Asp-Gly-Pro
substance,measurement,setting,value
Ala-Glu-Lys [AEK],Absorbance (450 nm),CHO-K1 [1]; 0.129 mM peptide,0.0350
same,Absorbance (450 nm),CHO-K1 [1]; 0.259 mM peptide,0.1143
same,Absorbance (450 nm),CHO-K1 [1]; 0.516 mM peptide,0.1927
same,Absorbance (450 nm),CHO-K1 [1]; 1.03 mM peptide,0.2337
same,Absorbance (450 nm),CHO-K1 [1]; 2.06 mM peptide,0.5013
same,Absorbance (450 nm),CHO-K1 [1]; 4.13 mM peptide,0.4857
same,"cell growth promotion, order of the peptides",CHO-K1 [1],cell growth was promoted
Ala-Gly-Gly [AGG],Absorbance (450 nm),CHO-K1 [1]; 0.156 mM peptide,0.0277
same,Absorbance (450 nm),CHO-K1 [1]; 0.313 mM peptide,0.0274
same,Absorbance (450 nm),CHO-K1 [1]; 0.625 mM peptide,0.0967
same,Absorbance (450 nm),CHO-K1 [1]; 1.25 mM peptide,0.2064
same,Absorbance (450 nm),CHO-K1 [1]; 2.5 mM peptide,0.3357
same,Absorbance (450 nm),CHO-K1 [1]; 5 mM peptide,0.2080
same,"cell growth promotion, order of the peptides",CHO-K1 [1],cell growth was promoted
Ala-Ser-Asn,Absorbance (450 nm),CHO-K1 [1]; 0.138 mM peptide,−0.0527
same,Absorbance (450 nm),CHO-K1 [1]; 0.276 mM peptide,−0.0250
same,Absorbance (450 nm),CHO-K1 [1]; 0.552 mM peptide,−0.0214
same,Absorbance (450 nm),CHO-K1 [1]; 1.10 mM peptide,−0.0224
same,Absorbance (450 nm),CHO-K1 [1]; 2.21 mM peptide,0.1170
same,Absorbance (450 nm),CHO-K1 [1]; 4.42 mM peptide,0.3320
same,"cell growth promotion, order of the peptides",CHO-K1 [1],cell growth was promoted
Glu-Gly-Lys [EGK],Absorbance (450 nm),CHO-K1 [1]; 0.128 mM peptide,0.0383
same,Absorbance (450 nm),CHO-K1 [1]; 0.257 mM peptide,0.1123
same,Absorbance (450 nm),CHO-K1 [1]; 0.512 mM peptide,0.0893
same,Absorbance (450 nm),CHO-K1 [1]; 1.02 mM peptide,0.1503
same,Absorbance (450 nm),CHO-K1 [1]; 2.05 mM peptide,0.1876
same,Absorbance (450 nm),CHO-K1 [1]; 4.10 mM peptide,0.2373
same,"cell growth promotion, order of the peptides",CHO-K1 [1],cell growth was promoted
"Gly-Gly-Gly [GGG, reference compound]","Cells cell count, Mean","CHO-K1 [2]; mean n=3, 2.2 mM Asp-Gly-Pro",0.0502 ×10^4
same,"Viability, Mean","CHO-K1 [2]; mean n=3, 2.2 mM Asp-Gly-Pro",1.7
same,"Cells cell count, 1",CHO-K1 [2]; [3],0.1360 ×10^4
same,"Viability, 1",CHO-K1 [2]; [3],4.45
same,"Cells cell count, 2",CHO-K1 [2]; [4],0.0080 ×10^4
same,"Viability, 2",CHO-K1 [2]; [4],0.31
same,"Cells cell count, 3",CHO-K1 [2]; [5],0.0065 ×10^4
same,"Viability, 3",CHO-K1 [2]; [5],0.21
same,Absorbance (450 nm),CHO-K1 [1]; 0.156 mM peptide,0.0067
same,Absorbance (450 nm),CHO-K1 [1]; 0.313 mM peptide,0.0037
same,Absorbance (450 nm),CHO-K1 [1]; 0.625 mM peptide,0.0027
same,Absorbance (450 nm),CHO-K1 [1]; 1.25 mM peptide,−0.0013
same,Absorbance (450 nm),CHO-K1 [1]; 2.5 mM peptide,0.0013
same,Absorbance (450 nm),CHO-K1 [1]; 5 mM peptide,0.0083
Gly-Gly-Pro [GGP],Absorbance (450 nm),CHO-K1 [1]; 0.135 mM peptide,0.0420
same,Absorbance (450 nm),CHO-K1 [1]; 0.270 mM peptide,0.0966
same,Absorbance (450 nm),CHO-K1 [1]; 0.539 mM peptide,0.2946
same,Absorbance (450 nm),CHO-K1 [1]; 1.08 mM peptide,0.4653
same,Absorbance (450 nm),CHO-K1 [1]; 2.16 mM peptide,0.5483
same,Absorbance (450 nm),CHO-K1 [1]; 4.31 mM peptide,0.3286
same,"cell growth promotion, order of the peptides",CHO-K1 [1],cell growth was promoted
